From ChEMBL document CHEMBL5331074, “Design and synthesis of new adamantyl derivatives as promising antiproliferative agents” (Eur J Med Chem, 2023)

Legend:
CCRF-CEM = test: Cytotoxicity against human CCRF-CEM cells assessed as cell growth inhibition; format: functional, cell-based
MOLT-4 = test: Cytotoxicity against human MOLT-4 cells assessed as cell growth inhibition; format: functional, cell-based
OVCAR-3 = test: Cytotoxicity against human OVCAR-3 cells assessed as cell growth inhibition; format: functional, cell-based
RXF 393 = test: Cytotoxicity against human RXF 393 cells assessed as cell growth inhibition; format: functional, cell-based
[1] = Selectivity index, ratio of IC50 for cytotoxicity against human hTERT-HME1 cells to IC50 for cytotoxicity against human MCF7 cells; format: toxicity, cell-based; settings: hTERT-HME1 cells and MCF7 cells, read-out: Ratio IC50
[2] = Selectivity index, ratio of IC50 for cytotoxicity against human F180 cells to IC50 for cytotoxicity against human UACC-62 cells
[3] = Selectivity index, ratio of IC50 for cytotoxicity against human F180 cells to IC50 for cytotoxicity against human SK-MEL-28 cells
K562 [4] = test: Induction of apoptosis in human K562 cells assessed as fold increase in caspase 3/7 activity at 0.58 uM (reference value: 1.03 +/- 0.02); format: functional
K562 [5] = test: Induction of apoptosis in human K562 cells assessed as fold increase in caspase 3/7 activity at 1.16 uM (reference value: 1.03 +/- 0.02); format: functional
K562 [6] = test: Induction of necrosis in human K562 cells assessed as LDH release at 0.58 uM (reference value: 0.20+/- 0.02%); format: functional
K562 [7] = test: Induction of necrosis in human K562 cells assessed as LDH release at 1.16 uM (reference value: 0.20+/- 0.02%); format: functional
Carbonic anhydrase 2 [8] = biological target: T1, Carbonic anhydrase 2 (Homo sapiens, UniProt P00918); test: Inhibition of Carbonic anhydrase 2 (unknown origin) at 100 uM using p-nitrophenyl acetate as substrate preincubated for 10 mins followed by substrate addition and measured after 30 mins by microplate reader method relative to control; settings: time 40.0 min
Carbonic anhydrase 12 [9] = biological target: T2, Carbonic anhydrase 12 (Homo sapiens, UniProt O43570); test: Inhibition of Carbonic anhydrase 12 (unknown origin) using p-nitrophenyl acetate as substrate preincubated for 10 mins followed by substrate addition and measured after 30 mins by microplate reader method
T2 sequence (O43570 whole entry): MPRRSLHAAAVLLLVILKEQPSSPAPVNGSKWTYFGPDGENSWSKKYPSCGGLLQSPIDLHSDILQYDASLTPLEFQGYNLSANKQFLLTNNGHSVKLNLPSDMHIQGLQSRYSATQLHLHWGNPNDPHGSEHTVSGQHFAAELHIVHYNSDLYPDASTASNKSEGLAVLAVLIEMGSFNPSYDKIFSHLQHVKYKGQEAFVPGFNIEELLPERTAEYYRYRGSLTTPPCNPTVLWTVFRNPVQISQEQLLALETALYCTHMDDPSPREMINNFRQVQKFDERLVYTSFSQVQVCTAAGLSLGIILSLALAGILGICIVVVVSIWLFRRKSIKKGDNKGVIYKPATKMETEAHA

[10] = test system: Panel NCI-60 (60 carcinoma cell lines); test: Cytotoxicity against human Panel NCI-60 (60 carcinoma cell lines) assessed as mean growth inhibition; format: functional
CAKI-1 = test: Cytotoxicity against human CAKI-1 cells assessed as cell growth inhibition; format: functional, cell-based
[11] = Selectivity index, ratio of IC50 for cytotoxicity against human hTERT-HME1 cells to IC50 for cytotoxicity against human Hs-578T cells
[12] = Selectivity index, ratio of IC50 for cytotoxicity against human F180 cells to IC50 for cytotoxicity against human SK-MEL-5 cells
[13] = Selectivity index, ratio of IC50 for cytotoxicity against human F180 cells to IC50 for cytotoxicity against human UACC-257 cells
K562 [14] = test: Induction of apoptosis in human K562 cells assessed as fold increase in caspase 3/7 activity at 0.32 uM (reference value: 1.03 +/- 0.02); format: functional
K562 [15] = test: Induction of apoptosis in human K562 cells assessed as fold increase in caspase 3/7 activity at 0.64 uM (reference value: 1.03 +/- 0.02); format: functional
K562 [16] = test: Induction of necrosis in human K562 cells assessed as LDH release at 0.32 uM (reference value: 0.20+/- 0.02%); format: functional
K562 [17] = test: Induction of necrosis in human K562 cells assessed as LDH release at 0.64 uM (reference value: 0.20+/- 0.02%); format: functional
Carbonic anhydrase 2 [18] = biological target: T1, Carbonic anhydrase 2; test: Inhibition of Carbonic anhydrase 2 (unknown origin) using p-nitrophenyl acetate as substrate preincubated for 10 mins followed by substrate addition and measured after 30 mins by microplate reader method
Carbonic anhydrase 12 [19] = biological target: T2, Carbonic anhydrase 12; test: Inhibition of Carbonic anhydrase 12 (unknown origin) at 100 uM using p-nitrophenyl acetate as substrate preincubated for 10 mins followed by substrate addition and measured after 30 mins by microplate reader method relative to control; settings: time 40.0 min

## O=C(Nc1ccc(OS(=O)(=O)c2ccc(F)cc2)cc1)C12CC3CC(CC(C3)C1)C2
CCRF-CEM
  IC50: 3.73 µM
MOLT-4
  IC50: 5.05 µM
OVCAR-3
  IC50: 6.05 µM
RXF 393
  IC50: 4.76 µM
[1]
  selectivity ratio: 84.7
[2]
  Ratio IC50: 15.9
[3]
  Ratio IC50: 1.7
K562 [4]
  fold change (FC): 1.89
K562 [5]
  fold change (FC): 2.72
K562 [6]
  Activity: 1.8%
K562 [7]
  Activity: 3.4%
Carbonic anhydrase 2 [8]
  inhibition: 39.6%
Carbonic anhydrase 12 [9]
  IC50: 0.68 µM

## O=C(Nc1ccc(OS(=O)(=O)c2ccccc2)cc1)C12CC3CC(CC(C3)C1)C2
[10]
  inhibition (INH): 44.5%
CAKI-1
  IC50: 7.08 µM
RXF 393
  IC50: 5.12 µM
[11]
  Ratio IC50: 6.8
[12]
  Ratio IC50: 3.12
[13]
  Ratio IC50: 3.7
K562 [14]
  fold change (FC): 2.05
K562 [15]
  fold change (FC): 3.7
K562 [16]
  Activity: 0.5%
K562 [17]
  Activity: 2.3%
Carbonic anhydrase 2 [18]
  IC50: 0.88 µM
Carbonic anhydrase 12 [19]
  inhibition: 18.1%
